One assay relates to sphenopalatine ganglion. The following applies: cited from earlier work; for duration of anesthesia provided to the nerve structure: long-acting local anesthetics in SPGB.
The subject of assay [1] is tension headaches and migraines. The assay is described as follows: Earlier treatment of Patient 1 (tension headaches and migraines). Format: in vivo, human. The following applies: Patient 1, before the composition. The source says:
This patient was a person who experienced tension headaches and migraines. The pain was acute producing nauseas and vomits.

On to `CCCCN1CCCCC1C(=O)Nc1c(C)cccc1C` (centres unmarked) [bupivacaine], for which, in the assay on sphenopalatine ganglion, the “duration of anesthesia provided to the nerve structure” value is “at least about an hour”.
With `CCN(CC)CC(=O)Nc1c(C)cccc1C` [lidocaine], the “period for which head pain is decreased (equal to the duration of the analgesia)” value in the assay with sphenopalatine ganglion (shorter-acting local anesthetic in SPGB) is reported as “less than an hour”.
Consider `Cc1ccccc1C(OCCN(C)C)c1ccccc1` (centres unmarked) [norflex], for which the “outcome of earlier treatment” value in assay [1] is “without success”.
Same read-out and setting: in the case of `COc1ccc2cc(CCC(C)=O)ccc2c1` [relafen] it was “without success”.
As for `CCCN1CCCC[C@H]1C(=O)Nc1c(C)cccc1C` [ropivacaine], the “duration of anesthesia provided to the nerve structure” value in the assay on sphenopalatine ganglion is reported as “at least about an hour”.
